Experimental data taken from the supplement of paper PMC9265050, “Inhibition of RNA Binding in SND1 Increases the Levels of miR-1-3p and Sensitizes Cancer Cells to Navitoclax” (Cancers, 2022).

Tested on: SW480
Test: drug sensitivity score (DSS, integrated dose-response area); higher = more sensitive (stronger viability reduction); extreme values may be limits of the assay
Procedure, shortened: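 SW480 cells stably carrying doxycycline-inducible control or SND1-targeting shRNA were induced with 0.1 µg/mL doxycycline for 7 days. They were then plated at 1000 cells per well in 384-well plates holding 525 commercially available small-molecule inhibitors at five concentrations. Viability was read with CellTiter-Glo after 72 h. The drug sensitivity score integrates the area under a fitted non-linear dose–response model.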

[1] = shRNA: SND1 shRNA1 (SND1 silenced)
[2] = shRNA: control shRNA (non-targeting)
[3] = shRNA: SND1 shRNA2 (SND1 silenced)

Structure (SMILES)	drug sensitivity score [1] [DSS]	drug sensitivity score [2] [DSS]	drug sensitivity score [3] [DSS]
C[C@@H]1CN(CC(=O)Nc2ccc3c(c2)Cc2cccc(-c4cc(=O)cc(N5CCOCC5)o4)c2S3)C[C@H](C)O1	6.4	5.3	
COc1ccc(C[C@H](NC(=O)[C@H](C)NC(=O)CN2CCOCC2)C(=O)N[C@@H](Cc2ccccc2)C(=O)C2(C)CO2)cc1 (stereo in doubt) [ONX-0914]	12.9	15.4	12.6
Cn1cc(C[C@@H](N)C(=O)O)c2ccccc21 [1-methyl-D-tryptophan]	0	0	
COc1cc2c(cc1O)CC[C@@H]1[C@@H]2CC[C@]2(C)[C@@H](O)CC[C@@H]12 [2-methoxyestradiol]	5.5	6.1	6.6
CC/C(=C(\c1ccc(O)cc1)c1ccc(OCCN(C)C)cc1)c1ccccc1 [4-hydroxytamoxifen]	6.8	8.7	5.4
Nc1ncnc2c1nc(N)n2[C@@H]1O[C@H](CO)[C@@H](O)[C@H]1O [8-amino-adenosine]	23.6	22.2	24.3
Nc1ncnc2c1nc(Cl)n2[C@@H]1O[C@H](CO)[C@@H](O)[C@H]1O [8-chloro-adenosine]	13.5	11.3	13.3
CCCCC/C=C/C=C1/C(=O)C=C[C@@H]1C/C=C\CCCC(=O)O [15D-PGJ2]	1.7	0	0
COc1cc(O)c2c(c1)/C=C/C[C@H](O)[C@H](O)C(=O)/C=C\C[C@H](C)OC2=O [(5Z)-7-Oxozeaenol]	3.7	3.6	2.6
COc1ccc(S(=O)(=O)Nc2cccnc2Nc2ccc(O)cc2)cc1 [ABT-751]	9	9.5	9.1
Cc1ccccc1C(C(=O)NC1CCCCC1)N(C(=O)Cn1ccnc1C)c1cccc(F)c1 (stereo not drawn) [AGI-5198]	0	3.6	
O=C(Nc1cccc(C(F)(F)F)c1)Nc1cc(S(=O)(=O)NC2CC2)ccc1-c1ccsc1 [AGI-6780]	0.2	0.5	
COc1ccc2c(OCc3nnc4ccc(-c5ccccc5)nn34)ccnc2c1 [AMG-208]	0	0.5	2
CC(C)[C@@H](CS(=O)(=O)C(C)C)N1C(=O)[C@@](C)(CC(=O)O)C[C@H](c2cccc(Cl)c2)[C@H]1c1ccc(Cl)cc1 [AMG-232]	0	0	0
Cc1csc(-c2nnc(Nc3ccc(Oc4ncccc4-c4ccnc(N)n4)cc3)c3ccccc23)c1 [AMG-900]	5	1.7	0
CC1CCC(n2c3cnccc3c3cnc(Nc4ccc5c(n4)CCN(C(=O)CO)C5)nc32)CC1 (stereo not drawn) [AMG-925]	1.1	0	0
COCC1(CO)C(=O)C2CCN1CC2 (stereo not drawn) [APR-246]	0	2	1.1
CC(C)[C@H](C(=O)Nc1ccc(C(=O)NO)cc1)c1ccccc1 [AR-42]	19.6	10.9	12.9
CNC(=O)c1ccc(N2C(=S)N(c3cnc(C#N)c(C(F)(F)F)c3)C(=O)C23CCC3)cc1F [ARN 509]	0.7	0.9	0
COc1cc(N2CCC(N3CCN(C)CC3)CC2)ccc1Nc1ncnc(Nc2ccccc2S(=O)(=O)C(C)C)n1 [ASP3026]	4.6	8	5

Structure (SMILES)	drug sensitivity score [1] [DSS]	drug sensitivity score [2] [DSS]	drug sensitivity score [3] [DSS]
O=C(NC1CCNCC1)c1n[nH]cc1NC(=O)c1c(Cl)cccc1Cl [AT7519]	10.7	14.4	9.1
O=C(Nc1c[nH]nc1-c1nc2ccc(CN3CCOCC3)cc2[nH]1)NC1CC1 [AT9283]	3.6	0.6	0
CN[C@@H](C)C(=O)N[C@H]1CN(C(=O)CC(C)C)CC[C@H]2CC[C@@H](C(=O)NC(c3ccccc3)c3ccccc3)N2C1=O [AT-406]	0	0	0
CC[C@H](CC#N)OC(=O)N[C@@H](C)c1cccc(NC(=O)Nc2ccc(-c3cnco3)c(OC)c2)c1 [AVN944]	13.4	12.3	
COc1cc(N2CCN(C)CC2)ccc1Nc1nccc(-c2cn(C)c3cnccc23)n1 [AZ191]	6.8	7.9	
COc1cc(OC2CCN(C)CC2)ccc1Nc1ncc2c(n1)n(C1CCCC1)c(=O)n2C [AZ 3146]	10.9	9.5	10.6
CC(C)Oc1cc(Nc2nc(N[C@@H](C)c3ccc(F)cn3)ncc2Cl)n[nH]1 [AZ-23]	3.1	4.5	1.9
N[C@@H]1CCCN(c2c(/C=C3\SC(=O)NC3=O)cccc2-c2ccccc2)C1 [AZD1208]	0	0	
Cc1cc(Nc2nc(N[C@@H](C)c3ncc(F)cn3)ncc2Cl)[nH]n1 [AZD1480]	0.6	1.1	0
CNC(=O)c1cccc(-c2ccc3c(N4CCOC[C@@H]4C)nc(N4CCOC[C@@H]4C)nc3n2)c1 [AZD2014]	13.2	9.6	12.6
COc1cc(CCc2cc(NC(=O)c3ccc(N4CC(C)NC(C)C4)cc3)n[nH]2)cc(OC)c1 (stereo not drawn) [AZD4547]	2.9	1.6	0
CN(C)C(=O)c1ccc(S(=O)(=O)c2ccc(NC(=O)[C@@](C)(O)C(F)(F)F)c(Cl)c2)cc1 [AZD7545]	0	0	2.4
NC(=O)Nc1cc(-c2cccc(F)c2)sc1C(=O)N[C@H]1CCCNC1 [AZD7762]	7.8	8.7	8.6
COc1ccc(-c2ccc3c(N4CCOC[C@@H]4C)nc(N4CCOC[C@@H]4C)nc3n2)cc1CO [AZD8055]	20.6	14.9	19.2
N#Cc1ccc2[nH]c(O)c(-c3ccc(CN4CCOCC4)cn3)c2c1 [AZD-1080]	1.3	1.1	
Cc1ncc(-c2ccnc(Nc3ccc(S(C)(=O)=O)cc3)n2)n1C(C)C [AZD-5438]	11.8	12.7	
Cc1cc([C@@H](C)Nc2ccccc2C(=O)O)c2nc(N3CCOCC3)cc(=O)n2c1 [AZD-6482]	0	3	4.3
C[C@@H](Nc1cc(F)cc(F)c1)c1cc(C(=O)N(C)C)cc2c(=O)cc(N3CCOCC3)oc12 [AZD-8186]	0	0	0
Cc1cc(C(=O)NOCCO)c(Nc2ccc(I)cc2F)n(C)c1=O [AZD-8330]	32.4	18.4	22.9
